Data: patent US9051310B2, “Nicotinamide derivative or salt thereof” (FUJIFILM Corporation, priority 2011, dated 2015)
pIC50: −log10 of the molar value.

biological target: T1, glutathione S-transferase (GST)-linked full-length human Syk protein (Homo sapiens, UniProt P43405); experiment: Syk enzyme assay; format: biochemical; settings: 0.83 nM Syk, time-resolved fluorescence; read-out: IC50 of Syk-inhibitory activity
T1 construct: glutathione S-transferase (GST)-linked full-length human Syk protein; purchased Carna Biosciences; host or cells: Baculovirus expression system
Method in brief: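 Phosphotyrosine on a biotin-peptide substrate (0.5 μM) was read by time-resolved fluorescence at 615 and 665 nm with Eu-anti-pTyr antibody and APC-streptavidin after 1 h EDTA stop.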

SMILES	pIC50
CCn1ncc2cc(Nc3nc(N[C@@H](CN)Cc4ccccc4)c(F)cc3C(N)=O)ccc21 [Example 2-363, (R)-6-((1-amino-3-phenylpropan-2-yl)amino)-2-((1-ethyl-1H-indazol-5-yl)amino)-5-fluoronicotinamide]	7.30 to 8.00
Cc1ncc(Nc2nc(N[C@@H](CN)Cc3ccccc3)c(F)cc2C(N)=O)cc1-n1nccn1 [Example 2-364, (R)-6-((1-amino-3-phenylpropan-2-yl)amino)-5-fluoro-2-((6-methyl-5-(2H-1,2,3-triazol-2-yl)pyridin-3-yl)amino)nicotinamide]	7.00 to 7.30
CCn1ncc2c(Nc3nc(N[C@@H]4CCCC[C@@H]4N)c(F)cc3C(N)=O)cc(F)cc21 [Example 2-369, 6-(((1R,2S)-2-aminocyclohexyl)amino)-2-((1-ethyl-6-fluoro-1H-indazol-4-yl)amino)-5-fluoronicotinamide]	> 8.00
CC[C@@H](Nc1nc(Nc2cc(F)cc3c2cnn3CC)c(C(N)=O)cc1F)[C@H](C)N [Example 2-371, 6-(((2S,3R)-2-aminopentan-3-yl)amino)-2-((1-ethyl-6-fluoro-1H-indazol-4-yl)amino)-5-fluoronicotinamide]	> 8.00
CC[C@H](N)[C@@H](C)Nc1nc(Nc2cc(F)cc3c2cnn3CC)c(C(N)=O)cc1F [Example 2-373, 6-(((2R,3S)-3-aminopentan-2-yl)amino)-2-((1-ethyl-6-fluoro-1H-indazol-4-yl)amino)-5-fluoronicotinamide]	> 8.00
CC[C@H](N)[C@H](Nc1nc(Nc2cnc(C)c(F)c2)c(C(N)=O)cc1F)C1CC1 [Example 2-382, 6-(((1R,2S)-2-amino-1-cyclopropylbutyl)amino)-5-fluoro-2-((5-fluoro-6-methylpyridin-3-yl)amino)nicotinamide]	7.30 to 8.00
CC[C@H](N)[C@H](Nc1nc(Nc2cc(F)c3c(c2)c(N(C)C)nn3C)c(C(N)=O)cc1F)C1CC1 [Example 2-383, 6-(((1R,2S)-2-amino-1-cyclopropylbutyl)amino)-2-((3-(dimethylamino)-7-fluoro-1-methyl-1H-indazol-5-yl)amino)-5-fluoronicotinamide]	> 8.00
COCCn1ncc2c(Nc3nc(N[C@@H]4CCCC[C@@H]4N)c(F)cc3C(N)=O)cncc21 [Example 2-384, 6-(((1R,2S)-2-aminocyclohexyl)amino)-5-fluoro-2-((1-(2-methoxyethyl)-1H-pyrazolo[3,4-c]pyridin-4-yl)amino)nicotinamide]	> 8.00
COCCn1ncc2c(Nc3nc(N[C@@H]4CCOC[C@@H]4N)c(F)cc3C(N)=O)cncc21 [Example 2-385, 6-(((3R,4R)-3-aminotetrahydro-2H-pyran-4-yl)amino)-5-fluoro-2-((1-(2-methoxyethyl)-1H-pyrazolo[3,4-c]pyridin-4-yl)amino)nicotinamide]	7.30 to 8.00
COCCn1ncc2c(Nc3nc(N[C@@H](CN)CC(C)C)c(F)cc3C(N)=O)cncc21 [Example 2-386, (R)-6-((1-amino-4-methylpentan-2-yl)amino)-5-fluoro-2-((1-(2-methoxyethyl)-1H-pyrazolo[3,4-c]pyridin-4-yl)amino)nicotinamide]	> 8.00
CC[C@@H](Nc1nc(Nc2cncc3c2cnn3CCOC)c(C(N)=O)cc1F)[C@H](C)N [Example 2-387, 6-(((2S,3R)-2-aminopentan-3-yl)amino)-5-fluoro-2-((1-(2-methoxyethyl)-1H-pyrazolo[3,4-c]pyridin-4-yl)amino)nicotinamide]	7.30 to 8.00
COCCn1ncc2c(Nc3nc(N[C@H](C4CC4)[C@H](C)N)c(F)cc3C(N)=O)cncc21 [Example 2-388, 6-(((1R,2S)-2-amino-1-cyclopropylpropyl)amino)-5-fluoro-2-((1-(2-methoxyethyl)-1H-pyrazolo[3,4-c]pyridin-4-yl)amino)nicotinamide]	> 8.00
CCCC[C@@H](Nc1nc(Nc2cncc3c2cnn3CCOC)c(C(N)=O)cc1F)[C@H](C)N [Example 2-389, 6-(((2S,3R)-2-aminoheptan-3-yl)amino)-5-fluoro-2-((1-(2-methoxyethyl)-1H-pyrazolo[3,4-c]pyridin-4-yl)amino)nicotinamide]	7.30 to 8.00
COCCn1ncc2c(Nc3nc(N[C@H](CC(C)C)[C@H](C)N)c(F)cc3C(N)=O)cncc21 [Example 2-390, 6-(((2S,3R)-2-amino-5-methylhexan-3-yl)amino)-5-fluoro-2-((1-(2-methoxyethyl)-1H-pyrazolo[3,4-c]pyridin-4-yl)amino)nicotinamide]	> 8.00
COCCn1ncc2c(Nc3nc(N[C@H](C4CCC4)[C@H](C)N)c(F)cc3C(N)=O)cncc21 [Example 2-391, 6-(((1R,2S)-2-amino-1-cyclobutylpropyl)amino)-5-fluoro-2-((1-(2-methoxyethyl)-1H-pyrazolo[3,4-c]pyridin-4-yl)amino)nicotinamide]	> 8.00
CC(C)C[C@H](CN)Nc1nc(Nc2cncc3c2cnn3CC(F)F)c(C(N)=O)cc1F [Example 2-395, (R)-6-((1-amino-4-methylpentan-2-yl)amino)-2-((1-(2,2-difluoroethyl)-1H-pyrazolo[3,4-c]pyridin-4-yl)amino)-5-fluoronicotinamide]	> 8.00

SMILES	pIC50
CC[C@@H](Nc1nc(Nc2cncc3c2cnn3CC(F)F)c(C(N)=O)cc1F)[C@H](C)N [Example 2-396, 6-(((2S,3R)-2-aminopentan-3-yl)amino)-2-((1-(2,2-difluoroethyl)-1H-pyrazolo[3,4-c]pyridin-4-yl)amino)-5-fluoronicotinamide]	> 8.00
C[C@H](N)[C@H](Nc1nc(Nc2cncc3c2cnn3CC(F)F)c(C(N)=O)cc1F)C1CC1 [Example 2-398, 6-(((1R,2S)-2-amino-1-cyclopropylpropyl)amino)-2-((1-(2,2-difluoroethyl)-1H-pyrazolo[3,4-c]pyridin-4-yl)amino)-5-fluoronicotinamide]	> 8.00
CC(C)C[C@@H](Nc1nc(Nc2cncc3c2cnn3CC(F)F)c(C(N)=O)cc1F)[C@H](C)N [Example 2-400, 6-(((2S,3R)-2-amino-5-methylhexan-3-yl)amino)-2-((1-(2,2-difluoroethyl)-1H-pyrazolo[3,4-c]pyridin-4-yl)amino)-5-fluoronicotinamide]	> 8.00
C[C@H](N)[C@H](Nc1nc(Nc2cncc3c2cnn3CC(F)F)c(C(N)=O)cc1F)C1CCC1 [Example 2-401, 6-(((1R,2S)-2-amino-1-cyclobutylpropyl)amino)-2-((1-(2,2-difluoroethyl)-1H-pyrazolo[3,4-c]pyridin-4-yl)amino)-5-fluoronicotinamide]	> 8.00
CC[C@H](N)[C@@H](C)Nc1nc(Nc2cncc3c2cnn3CC(F)F)c(C(N)=O)cc1F [Example 2-402, 6-(((2R,3S)-3-aminopentan-2-yl)amino)-2-((1-(2,2-difluoroethyl)-1H-pyrazolo[3,4-c]pyridin-4-yl)amino)-5-fluoronicotinamide]	> 8.00
Cc1ncc(Nc2nc(N[C@H](c3ccccn3)[C@H](C)N)c(F)cc2C(N)=O)cc1-n1nccn1 [Example 2-403, 6-(((1S,2S)-2-amino-1-(pyridin-2-yl)propyl)amino)-5-fluoro-2-((6-methyl-5-(2H-1,2,3-triazol-2-yl)pyridin-3-yl)amino)nicotinamide]	7.30 to 8.00
COc1ncc(Nc2nc(N[C@@H]3CCCC[C@@H]3N)c(F)cc2C(N)=O)c2cnn(C)c12 [Example 2-407, 6-(((1R,2S)-2-aminocyclohexyl)amino)-5-fluoro-2-((7-methoxy-1-methyl-1H-pyrazolo[3,4-c]pyridin-4-yl)amino)nicotinamide]	7.30 to 8.00
COc1ncc(Nc2nc(N[C@H](C3CC3)[C@H](C)N)c(F)cc2C(N)=O)c2cnn(C)c12 [Example 2-408, 6-(((1R,2S)-2-amino-1-cyclopropylpropyl)amino)-5-fluoro-2-((7-methoxy-1-methyl-1H-pyrazolo[3,4-c]pyridin-4-yl)amino)nicotinamide]	7.00 to 7.30
COc1cc(Nc2nc(N[C@H](c3ccccc3F)[C@H](C)N)c(F)cc2C(N)=O)cc(OC)n1 [Example 2-411, 6-(((1R,2S)-2-amino-1-(2-fluorophenyl)propyl)amino)-2-((2,6-dimethoxypyridin-4-yl)amino)-5-fluoronicotinamide]	> 8.00
Cc1ncc(Nc2nc(N[C@H](c3cccc(F)c3)[C@H](C)N)c(F)cc2C(N)=O)cc1-n1nccn1 [Example 2-412, 6-(((1R,2S)-2-amino-1-(3-fluorophenyl)propyl)amino)-5-fluoro-2-((6-methyl-5-(2H-1,2,3-triazol-2-yl)pyridin-3-yl)amino)nicotinamide]	7.30 to 8.00
COc1cc(Nc2nc(N[C@@H](CN)Cc3ccccc3)c(F)cc2C(N)=O)cc(OC)n1 [Example 2-418, (R)-6-((1-amino-3-phenylpropan-2-yl)amino)-2-((2,6-dimethoxypyridin-4-yl)amino)-5-fluoronicotinamide]	7.30 to 8.00
CN(C)c1nn(C)c2ccc(Nc3nc(N[C@@H](CN)Cc4ccccc4)c(F)cc3C(N)=O)cc12 [Example 2-421, (R)-6-((1-amino-3-phenylpropan-2-yl)amino)-2-((3-(dimethylamino)-1-methyl-1H-indazol-5-yl)amino)-5-fluoronicotinamide]	7.30 to 8.00
Cc1ncc(Nc2nc(N[C@H](Cc3ccccc3)[C@H](C)N)c(F)cc2C(N)=O)cc1-n1nccn1 [Example 2-422, 6-(((2R,3S)-3-amino-1-phenylbutan-2-yl)amino)-5-fluoro-2-((6-methyl-5-(2H-1,2,3-triazol-2-yl)pyridin-3-yl)amino)nicotinamide]	7.30 to 8.00
CCn1ncc2cc(Nc3nc(N[C@H](Cc4ccccc4)[C@H](C)N)c(F)cc3C(N)=O)ccc21 [Example 2-423, 6-(((2R,3S)-3-amino-1-phenylbutan-2-yl)amino)-2-((1-ethyl-1H-indazol-5-yl)amino)-5-fluoronicotinamide]	> 8.00
C[C@H](N)[C@@H](Cc1ccccc1)Nc1nc(Nc2ccc3c(c2)c(N(C)C)nn3C)c(C(N)=O)cc1F [Example 2-424, 6-(((2R,3S)-3-amino-1-phenylbutan-2-yl)amino)-2-((3-(dimethylamino)-1-methyl-1H-indazol-5-yl)amino)-5-fluoronicotinamide]	> 8.00
